In US20060069151A1, “Novel use of lycopene” (priority 2002, published 2006):

Tested on: androgen signalling
Test: androgen target gene expression in androgen sensitive target organ tissue
Format: in vivo
Conditions: after administration; no method, species or dose described

CC(C)=CCC/C(C)=C/C=C/C(C)=C/C=C/C(C)=C/C=C/C=C(C)/C=C/C=C(C)/C=C/C=C(\C)CCC=C(C)C [lycopene]
androgen target gene expression in androgen sensitive target organ tissue, as the endpoint and result of androgen signalling: significantly reduced
